According to patent publication US11090304B2 (Amgen Inc., priority 2018, dated 2021):
pIC50: −log10 of the molar value. Like-named read-outs stand apart in the source and are kept apart here.

Experiments:
[1] = target: GDP-bound KRAS protein (aa 1-169), containing both G12C and C118A amino acid substitutions (Homo sapiens, UniProt P01116, C118A/G12C); assay: Coupled nucleotide exchange assay (SOS-mediated, AlphaScreen); format: biochemical; conditions: 5 min compound pre-incubation
[2] = system: Phosphorylation of ERK1/2 in MIA PaCa-2 cells; assay: Phospho-ERK1/2 MSD assay in MIA PaCa-2 cells; format: cell-based; conditions: read-out: p-ERK IC50 (2 h; MIA PaCa-2), 2 h compound treatment
Method in brief: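 MIA PaCa-2 or A549 cells were treated with a compound dose-response titration for 2 or 4 h at 37 °C, then stimulated with 10 ng/mL EGF for 10 min. Phospho-ERK1/2 in RIPA lysates was measured by MSD whole-cell lysate immunoassay, and IC50 came from a 4-parameter logistic fit.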

Chain of GDP-bound KRAS protein (aa 1-169), containing both G12C and C118A amino acid substitutions (P01116 1-169 isoform P01116-2 G12C/C118A): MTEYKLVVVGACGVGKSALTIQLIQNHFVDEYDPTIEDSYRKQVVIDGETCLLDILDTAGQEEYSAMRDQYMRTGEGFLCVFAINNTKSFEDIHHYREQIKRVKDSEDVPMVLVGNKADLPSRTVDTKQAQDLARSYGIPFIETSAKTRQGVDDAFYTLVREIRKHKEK

SMILES	Coupled exchange IC50 (5 min) [1]	pIC50 ([2]; Homo sapiens, MIA PaCa-2, 2 h)	pIC50 [2]	pIC50 ([2]; Homo sapiens)
C=CC(=O)N1CCN(c2nc(=O)n(-c3c(F)cccc3C(C)C)c3nc(-c4ccccc4F)c(F)cc23)[C@@H](C)C1 (single isomer, unassigned) [Example 59-3-1]	0.128 | nda μM	6.46		
C=CC(=O)N1CCN(c2nc(=O)n(-c3c(C#N)cccc3C(C)C)c3nc(-c4ccccc4F)c(Cl)cc23)[C@@H](C)C1 (single isomer, unassigned) [Example 60-20-2]	0.024 | nda μM	7.48		
C=CC(=O)N1CCN(c2nc(=O)n(-c3c(C)ncnc3C3CC3)c3nc(-c4ccccc4F)c(Cl)cc23)[C@@H](C)C1 (single isomer, unassigned) [Example 60-30-2]	0.108 | nda μM	7.09		
C=CC(=O)N1CCN(c2nc(=O)n(-c3c(C)cccc3C(C)C)c3nc(-c4c(O)cccc4F)c(F)cc23)C[C@H]1C (single isomer, unassigned) [Example 63-2]	0.311 | nda μM	6.22		
C=CC(=O)N1C[C@H](C)N(c2nc(=O)n(-c3c(C)cccc3C(C)C)c3nc(-c4c(O)cccc4F)c(F)cc23)[C@@H](C)C1 (single isomer, unassigned) [Example 63-3]	0.059 | nda μM	6.97		
C=CC(=O)N1CCN(c2nc(=O)n(-c3c(C)cccc3C(C)C)c3nc(-c4cc(F)c(F)cc4O)c(Cl)cc23)[C@@H](C)C1 (single isomer, unassigned) [Example 64-2]	0.151 | nda μM	6.59		
C=CC(=O)N1CCN(c2nc(=O)n(-c3c(C)cccc3C(C)C)c3nc(-c4cccc(F)c4O)c(Cl)cc23)[C@@H](C)C1 (single isomer, unassigned) [Example 64-3]	0.189 | nda μM	6.66		
C=CC(=O)N1CCN(c2nc(=O)n(-c3c(C)cccc3C(C)C)c3nc(-c4c(O)cccc4Cl)c(F)cc23)[C@@H](C)C1 (single isomer, unassigned) [Example 68-1-1]	0.084 | nda μM		6.89	
C=CC(=O)N1CCN(c2nc(=O)n(-c3c(C)cccc3C(C)C)c3nc(-c4c(O)cccc4Cl)c(F)cc23)[C@@H](C)C1 (single isomer, unassigned) [Example 68-1-2]	0.613 | nda μM		6.13	
C=CC(=O)N1CCN(c2nc(=O)n(-c3c(C)cccc3C(C)C)c3nc(-c4c(C)ccc5[nH]ncc45)c(F)cc23)[C@@H](C)C1 (single isomer, unassigned) [Example 68-2-2]	0.31 | nda μM	6.22		
C=CC(=O)N1CCN(c2nc(=O)n(-c3c(C)cccc3C(C)C)c3nc(-c4nc(N)ccc4Cl)c(F)cc23)[C@@H](C)C1 (single isomer, unassigned) [Example 71-1-1]	0.49 | nda μM	6.14		
C=CC(=O)N1CCN(c2nc(=O)n(-c3ccccc3C(C)C)c3nc(-c4ccccc4F)c(C)cc23)[C@@H](C)C1 (single isomer, unassigned) [Example 74-1-2]	0.118 | nda μM	6.82		
C=CC(=O)N1CCN(c2nc(=O)n(-c3c(C)ccnc3C(C)C)c3nc(-c4ccccc4F)c(C)cc23)[C@@H](C)C1 (single isomer, unassigned) [Example 74-2-1]	0.26 | nda μM		6.87	
C=CC(=O)N1CCN(c2nc(=O)n(-c3c(C)ccnc3C(C)C)c3nc(-c4ccccc4F)c(C)cc23)[C@@H](C)C1 (single isomer, unassigned) [Example 74-2-2]	2.325 | nda μM		5.98	
C=CC(=O)N1CCN(c2nc(=O)n(-c3c(C)ccnc3C(C)C)c3nc(-c4c(O)cccc4F)c(C)cc23)[C@@H](C)C1 (single isomer, unassigned) [Example 74-3-1]	0.05 | nda μM	6.99		
C=CC(=O)N1CCN(c2nc(=O)n(-c3c(C)ccnc3C(C)C)c3nc(-c4c(O)cccc4F)c(F)cc23)C[C@H]1C (single isomer, unassigned) [Example 75-2]	0.493 | nda μM	6.51		
C=CC(=O)N1CCN(c2nc(=O)n(-c3c(C)ccnc3C(C)C)c3nc(-c4c(O)cccc4F)c(F)cc23)CC1 (single isomer, unassigned) [Example 75-4, (M)-6-fluoro-7-(2-fluoro-6-hydroxyphenyl)-1-(4-methyl-2-(2-propanyl)-3-pyridinyl)-4-(4-(2-propenoyl)-1-piperazinyl)pyrido[2,3-d]pyrimidin-2(1H)-one]	0.552 | nda μM	6.27		
C=CC(=O)N1C[C@@H](C)N(c2nc(=O)n(-c3c(C)ccnc3C(C)C)c3nc(-c4c(N)cccc4F)c(F)cc23)[C@@H](C)C1 (single isomer, unassigned) [Example 75-8]	0.023 | nda μM	7.42		
C=CC(=O)N1CCN(c2nc(=O)n(-c3c(C)ccnc3C(C)C)c3nc(-c4c(O)cccc4F)c(F)cc23)[C@@H](C(F)F)C1 (single isomer, unassigned) [Example 75-9-2, (M)-4-((2S or 2R)-2-(difluoromethyl)-4-(2-propenoyl)-1-piperazinyl)-6-fluoro-7-(2-fluoro-6-hydroxyphenyl)-1-(4-methyl-2-(2-propanyl)-3-pyridinyl)pyrido[2,3-d]pyrimidin-2(1H)-one]	0.136 | nda μM			6.95
C=CC(=O)N1[C@@H]2CCC[C@H]1CN(c1nc(=O)n(-c3c(C)ccnc3C(C)C)c3nc(-c4ccccc4F)c(Cl)cc13)C2 (single isomer, unassigned) [Example 78-2, (M)-6-chloro-7-(2-fluorophenyl)-1-(4-methyl-2-(2-propanyl)-3-pyridinyl)-4-(9-(2-propenoyl)-3,9-diazabicyclo[3.3.1]nonan-3-yl)pyrido[2,3-d]pyrimidin-2(1H)-one]	0.436 | nda μM	6.42		
C=CC(=O)N1CCN(c2nc(=O)n(-c3c(C)ccnc3C(C)C)c3nc(-c4ccccc4F)c(Cl)cc23)[C@@H](C(F)F)C1 (single isomer, unassigned) [Example 78-3-2]	0.094 | nda μM	7.10		
C=CC(=O)N1CCN(c2nc(=O)n(-c3c(C)ccnc3C(C)C)c3nc(-c4ccccc4F)c(Cl)cc23)[C@H](C(F)F)C1 (single isomer, unassigned) [Example 78-3]	0.141 | nda μM	6.61		
C=CC(=O)N1CCN(c2nc(=O)n(-c3c(C)ccnc3C(C)C)c3nc(-c4ccccc4F)c(Cl)cc23)C(CF)C1 (single isomer, unassigned) [Example 78-5, (M)-6-chloro-4-(2-(fluoromethyl)-4-(2-propenoyl)-1-piperazinyl)-7-(2-fluorophenyl)-1-(4-methyl-2-(2-propanyl)-3-pyridinyl)pyrido[2,3-d]pyrimidin-2(1H)-one]	0.349 | nda μM	5.58		
C=CC(=O)N1C[C@@H](C)N(c2nc(=O)n(-c3c(C)ccnc3C(C)C)c3nc(-c4ccccc4F)c(Cl)cc23)[C@@H](C)C1 (single isomer, unassigned) [Example 78-7, (M)-6-chloro-4-(cis-2,6-dimethyl-4-(2-propenoyl)-1-piperazinyl)-7-(2-fluorophenyl)-1-(4-methyl-2-(2-propanyl)-3-pyridinyl)pyrido[2,3-d]pyrimidin-2(1H)-one]	0.034 | nda μM	7.64		
C=CC(=O)N1C[C@H](C)N(c2nc(=O)n(-c3c(C)ccnc3C(C)C)c3nc(-c4ccccc4F)c(Cl)cc23)[C@@H](C)C1 (single isomer, unassigned) [Example 78-8]	0.026 | nda μM	8.00		
C=CC(=O)N1CCN(c2nc(=O)n(-c3c(C)ccnc3C(C)C)c3nc(-c4ccccc4F)c(Cl)cc23)C(C(F)(F)F)C1 (single isomer, unassigned) [Example 78-9, (M)-6-chloro-7-(2-fluorophenyl)-1-(4-methyl-2-(2-propanyl)-3-pyridinyl)-4-(4-(2-propenoyl)-2-(trifluoromethyl)-1-piperazinyl)pyrido[2,3-d]pyrimidin-2(1H)-one]	0.515 | nda μM	6.46		
C=CC(=O)N1CCN(c2nc(=O)n(-c3c(C)ccnc3C(C)C)c3nc(-c4ccccc4F)c(Cl)cc23)[C@@H](CO)C1 (single isomer, unassigned) [Example 78-14]	0.133 | nda μM	7.09		
C=CC(=O)N1CCN(c2nc(=O)n(-c3c(C)ccnc3C(C)C)c3nc(-c4ccccc4F)c(Cl)cc23)CC1 (single isomer, unassigned) [Example 78-15, (M)-6-chloro-7-(2-fluorophenyl)-1-(4-methyl-2-(2-propanyl)-3-pyridinyl)-4-(4-(2-propenoyl)-1-piperazinyl)pyrido[2,3-d]pyrimidin-2(1H)-one]	0.124 | nda μM	7.21		
C=CC(=O)N1CCN(c2nc(=O)n(-c3c(C)cc(CN(C)C)cc3C(C)C)c3nc(-c4ccccc4F)c(Cl)cc23)[C@@H](C)C1 (single isomer, unassigned) [Example 80-1-1]	0.044 | nda μM		7.54	
C=CC(=O)N1CCN(c2nc(=O)n(-c3c(C)cc(CN(C)C)cc3C(C)C)c3nc(-c4ccccc4F)c(Cl)cc23)[C@@H](C)C1 (single isomer, unassigned) [Example 80-1-2]	0.556 | nda μM		6.63	
